Experimental findings from patent US20120121591A1 (priority 2009, published 2012) are described below.

Holding throughout (assay type): cell-based
For one experiment, the target named is hKv1.3 (Homo sapiens, UniProt P22001). Put plainly: cell-based. The conditions noted are these: Kv1.3 (IWQ) IC50 (nM, Avg).
For experiment [1], the system named is IL-2 secretion from T cells in human whole blood. To be noted: read-out: WB (IL-2) IC50 (nM, Avg).
For experiment [2], the system named is IFN-g secretion from T cells in human whole blood. To be noted: read-out: WB (IFNg) IC50 (nM, Avg).

Sequence of hKv1.3 (P22001 whole entry): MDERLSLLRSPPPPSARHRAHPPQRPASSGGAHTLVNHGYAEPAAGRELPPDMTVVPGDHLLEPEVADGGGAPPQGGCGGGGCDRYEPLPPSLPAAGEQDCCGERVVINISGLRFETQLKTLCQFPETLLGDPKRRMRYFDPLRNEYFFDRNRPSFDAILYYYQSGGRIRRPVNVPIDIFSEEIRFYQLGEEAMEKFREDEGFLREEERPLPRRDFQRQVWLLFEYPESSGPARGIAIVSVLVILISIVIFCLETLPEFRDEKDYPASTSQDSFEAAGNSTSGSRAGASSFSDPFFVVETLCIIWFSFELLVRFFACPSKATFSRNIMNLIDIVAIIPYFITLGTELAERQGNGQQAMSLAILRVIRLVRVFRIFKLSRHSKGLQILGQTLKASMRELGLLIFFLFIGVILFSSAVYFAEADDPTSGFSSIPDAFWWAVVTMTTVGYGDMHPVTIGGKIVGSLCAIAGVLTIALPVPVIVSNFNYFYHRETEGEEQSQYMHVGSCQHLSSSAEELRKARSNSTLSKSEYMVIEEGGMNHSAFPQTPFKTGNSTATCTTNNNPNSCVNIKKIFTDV

With `CC[C@H](C)[C@@H]1NC(=O)[C@@H](NC(=O)[C@H](CO)NC(=O)[C@@H](N)CCCNC(=N)N)CSSC[C@@H](C(=O)O)NC(=O)[C@H]([C@@H](C)O)NC(=O)CNC(=O)[C@@H]2CSSC[C@@H]3NC(=O)[C@H](CCC(N)=O)NC(=O)[C@H](Cc4ccccc4)NC(=O)[C@H](C)NC(=O)[C@H]([C@@H](C)O)NC(=O)[C@H](CSSC[C@H](NC(=O)[C@H](Cc4ccccc4)NC(=O)[C@H](CO)NC(=O)[C@H](CC(C)C)NC(=O)[C@H](CCCNC(=N)N)NC(=O)[C@H](Cc4ccc(O)cc4)NC(=O)[C@H](CCCCN)NC(=O)[C@H](CCSC)NC(=O)[C@H](CO)NC(=O)[C@H](Cc4c[nH]cn4)NC(=O)[C@H](CCCCN)NC3=O)C(=O)N[C@@H](CCCNC(=N)N)C(=O)N[C@@H](CCCCN)C(=O)N[C@@H]([C@@H](C)O)C(=O)N2)NC(=O)[C@H](CCCNC(=N)N)NC(=O)[C@H](CO)NC(=O)[C@H](CCCNC(=N)N)NC(=O)[C@@H]2CCCN2C(=O)[C@H]([C@@H](C)CC)NC(=O)[C@H]([C@@H](C)O)NC(=O)[C@H](CC(=O)O)NC1=O` [[Arg9]ShK], the values for the IC50 (at hKv1.3; in experiment [1]; in experiment [2]) were 0.096 nM, 0.108 nM and 0.116 nM, respectively.
Taken in the same sequence, the figures for `CC[C@H](C)[C@@H]1NC(=O)[C@@H](NC(=O)[C@H](CO)NC(=O)[C@@H](N)CCCNC(=N)N)CSSC[C@@H](C(=O)O)NC(=O)[C@H]([C@@H](C)O)NC(=O)CNC(=O)[C@@H]2CSSC[C@@H]3NC(=O)[C@H](CCC(N)=O)NC(=O)[C@H](Cc4ccccc4)NC(=O)[C@H](C)NC(=O)[C@H]([C@@H](C)O)NC(=O)[C@H](CSSC[C@H](NC(=O)[C@H](Cc4ccccc4)NC(=O)[C@H](CO)NC(=O)[C@H](CC(C)C)NC(=O)[C@H](CCCNC(=N)N)NC(=O)[C@H](Cc4ccc(O)cc4)NC(=O)[C@H](CCCCN)NC(=O)[C@H](CCSC)NC(=O)[C@H](CO)NC(=O)[C@H](Cc4c[nH]cn4)NC(=O)[C@H](CCCCN)NC3=O)C(=O)N[C@@H](CCCNC(=N)N)C(=O)N[C@@H](CCCCN)C(=O)N[C@@H]([C@@H](C)O)C(=O)N2)NC(=O)[C@H](CCCNC(=N)N)NC(=O)[C@H](CCCNC(=N)N)NC(=O)[C@H](CCCCN)NC(=O)[C@@H]2CCCN2C(=O)[C@H]([C@@H](C)CC)NC(=O)[C@H]([C@@H](C)O)NC(=O)[C@H](CC(=O)O)NC1=O` [[Arg10]ShK] were 0.07 nM, 0.029 nM and 0.068 nM.
With `CC[C@H](C)[C@@H]1NC(=O)[C@@H](NC(=O)[C@H](CO)NC(=O)[C@@H](N)CCCNC(=N)N)CSSC[C@@H](C(=O)O)NC(=O)[C@H]([C@@H](C)O)NC(=O)CNC(=O)[C@@H]2CSSC[C@@H]3NC(=O)[C@H](CCC(N)=O)NC(=O)[C@H](Cc4ccccc4)NC(=O)[C@H](C)NC(=O)[C@H](CCCNC(=N)N)NC(=O)[C@H](CSSC[C@H](NC(=O)[C@H](Cc4ccccc4)NC(=O)[C@H](CO)NC(=O)[C@H](CC(C)C)NC(=O)[C@H](CCCNC(=N)N)NC(=O)[C@H](Cc4ccc(O)cc4)NC(=O)[C@H](CCCCN)NC(=O)[C@H](CCSC)NC(=O)[C@H](CO)NC(=O)[C@H](Cc4c[nH]cn4)NC(=O)[C@H](CCCCN)NC3=O)C(=O)N[C@@H](CCCNC(=N)N)C(=O)N[C@@H](CCCCN)C(=O)N[C@@H]([C@@H](C)O)C(=O)N2)NC(=O)[C@H](CCCNC(=N)N)NC(=O)[C@H](CO)NC(=O)[C@H](CCCCN)NC(=O)[C@@H]2CCCN2C(=O)[C@H]([C@@H](C)CC)NC(=O)[C@H]([C@@H](C)O)NC(=O)[C@H](CC(=O)O)NC1=O` [[Arg13]ShK], the IC50 against hKv1.3 is 0.149 nM; in experiment [1] it was 0.503 nM; in experiment [2], 0.629 nM.
As to `CC[C@H](C)[C@@H]1NC(=O)[C@@H](NC(=O)[C@H](CO)NC(=O)[C@@H](N)CCCNC(=N)N)CSSC[C@@H](C(=O)O)NC(=O)[C@H]([C@@H](C)O)NC(=O)CNC(=O)[C@@H]2CSSC[C@@H]3NC(=O)[C@H](CCC(N)=O)NC(=O)[C@H](Cc4ccccc4)NC(=O)[C@H](CCCNC(=N)N)NC(=O)[C@H]([C@@H](C)O)NC(=O)[C@H](CSSC[C@H](NC(=O)[C@H](Cc4ccccc4)NC(=O)[C@H](CO)NC(=O)[C@H](CC(C)C)NC(=O)[C@H](CCCNC(=N)N)NC(=O)[C@H](Cc4ccc(O)cc4)NC(=O)[C@H](CCCCN)NC(=O)[C@H](CCSC)NC(=O)[C@H](CO)NC(=O)[C@H](Cc4c[nH]cn4)NC(=O)[C@H](CCCCN)NC3=O)C(=O)N[C@@H](CCCNC(=N)N)C(=O)N[C@@H](CCCCN)C(=O)N[C@@H]([C@@H](C)O)C(=O)N2)NC(=O)[C@H](CCCNC(=N)N)NC(=O)[C@H](CO)NC(=O)[C@H](CCCCN)NC(=O)[C@@H]2CCCN2C(=O)[C@H]([C@@H](C)CC)NC(=O)[C@H]([C@@H](C)O)NC(=O)[C@H](CC(=O)O)NC1=O` [[Arg14]ShK], the results for the IC50 (at hKv1.3; in experiment [1]; in experiment [2]) were 0.077 nM, 0.266 nM and 0.307 nM, respectively.
Consider `CC[C@H](C)[C@@H]1NC(=O)[C@@H](NC(=O)[C@H](CO)NC(=O)[C@@H](N)CCCNC(=N)N)CSSC[C@@H](C(=O)O)NC(=O)[C@H]([C@@H](C)O)NC(=O)CNC(=O)[C@@H]2CSSC[C@@H]3NC(=O)[C@H](CCC(N)=O)NC(=O)[C@H](CCCNC(=N)N)NC(=O)[C@H](C)NC(=O)[C@H]([C@@H](C)O)NC(=O)[C@H](CSSC[C@H](NC(=O)[C@H](Cc4ccccc4)NC(=O)[C@H](CO)NC(=O)[C@H](CC(C)C)NC(=O)[C@H](CCCNC(=N)N)NC(=O)[C@H](Cc4ccc(O)cc4)NC(=O)[C@H](CCCCN)NC(=O)[C@H](CCSC)NC(=O)[C@H](CO)NC(=O)[C@H](Cc4c[nH]cn4)NC(=O)[C@H](CCCCN)NC3=O)C(=O)N[C@@H](CCCNC(=N)N)C(=O)N[C@@H](CCCCN)C(=O)N[C@@H]([C@@H](C)O)C(=O)N2)NC(=O)[C@H](CCCNC(=N)N)NC(=O)[C@H](CO)NC(=O)[C@H](CCCCN)NC(=O)[C@@H]2CCCN2C(=O)[C@H]([C@@H](C)CC)NC(=O)[C@H]([C@@H](C)O)NC(=O)[C@H](CC(=O)O)NC1=O` [[Arg15]ShK], for which the IC50 at hKv1.3 is 0.088 nM; in experiment [1], 0.162 nM; in experiment [2], 0.204 nM.
With `CC[C@H](C)[C@@H]1NC(=O)[C@@H](NC(=O)[C@H](CO)NC(=O)[C@@H](N)CCCNC(=N)N)CSSC[C@@H](C(=O)O)NC(=O)[C@H]([C@@H](C)O)NC(=O)CNC(=O)[C@@H]2CSSC[C@@H]3NC(=O)[C@H](CCCNC(=N)N)NC(=O)[C@H](Cc4ccccc4)NC(=O)[C@H](C)NC(=O)[C@H]([C@@H](C)O)NC(=O)[C@H](CSSC[C@H](NC(=O)[C@H](Cc4ccccc4)NC(=O)[C@H](CO)NC(=O)[C@H](CC(C)C)NC(=O)[C@H](CCCNC(=N)N)NC(=O)[C@H](Cc4ccc(O)cc4)NC(=O)[C@H](CCCCN)NC(=O)[C@H](CCSC)NC(=O)[C@H](CO)NC(=O)[C@H](Cc4c[nH]cn4)NC(=O)[C@H](CCCCN)NC3=O)C(=O)N[C@@H](CCCNC(=N)N)C(=O)N[C@@H](CCCCN)C(=O)N[C@@H]([C@@H](C)O)C(=O)N2)NC(=O)[C@H](CCCNC(=N)N)NC(=O)[C@H](CO)NC(=O)[C@H](CCCCN)NC(=O)[C@@H]2CCCN2C(=O)[C@H]([C@@H](C)CC)NC(=O)[C@H]([C@@H](C)O)NC(=O)[C@H](CC(=O)O)NC1=O` [[Arg16]ShK], the results for the IC50 (at hKv1.3; in experiment [1]; in experiment [2]) were 0.164 nM, 0.652 nM and 0.818 nM, respectively.
As for `CC[C@H](C)[C@@H]1NC(=O)[C@@H](NC(=O)[C@H](CO)NC(=O)[C@@H](N)CCCNC(=N)N)CSSC[C@@H](C(=O)O)NC(=O)[C@H]([C@@H](C)O)NC(=O)CNC(=O)[C@@H]2CSSC[C@@H]3NC(=O)[C@H](CCC(N)=O)NC(=O)[C@H](Cc4ccccc4)NC(=O)[C@H](C)NC(=O)[C@H]([C@@H](C)O)NC(=O)[C@H](CSSC[C@H](NC(=O)[C@H](Cc4ccccc4)NC(=O)[C@H](CO)NC(=O)[C@H](CC(C)C)NC(=O)[C@H](CCCNC(=N)N)NC(=O)[C@H](Cc4ccc(O)cc4)NC(=O)[C@H](CCCCN)NC(=O)[C@H](CCSC)NC(=O)[C@H](CO)NC(=O)[C@H](CCCNC(=N)N)NC(=O)[C@H](CCCCN)NC3=O)C(=O)N[C@@H](CCCNC(=N)N)C(=O)N[C@@H](CCCCN)C(=O)N[C@@H]([C@@H](C)O)C(=O)N2)NC(=O)[C@H](CCCNC(=N)N)NC(=O)[C@H](CO)NC(=O)[C@H](CCCCN)NC(=O)[C@@H]2CCCN2C(=O)[C@H]([C@@H](C)CC)NC(=O)[C@H]([C@@H](C)O)NC(=O)[C@H](CC(=O)O)NC1=O` [[Arg19]ShK], the IC50 on hKv1.3 was 0.1 nM; in experiment [1], 0.039 nM; in experiment [2] it was 0.116 nM.
Taken in the same sequence, the figures for `CC[C@H](C)[C@@H]1NC(=O)[C@@H](NC(=O)[C@H](CO)NC(=O)[C@@H](N)CCCNC(=N)N)CSSC[C@@H](C(=O)O)NC(=O)[C@H]([C@@H](C)O)NC(=O)CNC(=O)[C@@H]2CSSC[C@@H]3NC(=O)[C@H](CCC(N)=O)NC(=O)[C@H](Cc4ccccc4)NC(=O)[C@H](C)NC(=O)[C@H]([C@@H](C)O)NC(=O)[C@H](CSSC[C@H](NC(=O)[C@H](Cc4ccccc4)NC(=O)[C@H](CO)NC(=O)[C@H](CC(C)C)NC(=O)[C@H](CCCNC(=N)N)NC(=O)[C@H](Cc4ccc(O)cc4)NC(=O)[C@H](CCCCN)NC(=O)[C@H](CCSC)NC(=O)[C@H](CCCNC(=N)N)NC(=O)[C@H](Cc4c[nH]cn4)NC(=O)[C@H](CCCCN)NC3=O)C(=O)N[C@@H](CCCNC(=N)N)C(=O)N[C@@H](CCCCN)C(=O)N[C@@H]([C@@H](C)O)C(=O)N2)NC(=O)[C@H](CCCNC(=N)N)NC(=O)[C@H](CO)NC(=O)[C@H](CCCCN)NC(=O)[C@@H]2CCCN2C(=O)[C@H]([C@@H](C)CC)NC(=O)[C@H]([C@@H](C)O)NC(=O)[C@H](CC(=O)O)NC1=O` [[Arg20]ShK] were 3.84 nM, 36.9 nM and 31.3 nM.
